# Values of other authors, collected in US8545863B2, “Insecticides for agricultural and horticultural crops” (Globachem, priority 2009, dated 2013).
# System: apple scab (V. inequalis)
Structure (SMILES),decreasing fruit and leaf scab (apple scab),concentration preventing germination of spores and killing the spore sacks (asci) (apple scab (V. inequalis)) [g/L]
"O=C([O-])O.[K+] [Potassium bicarbonate, potassium bicarbonate]",effective,–
[Ca+2].[OH-].[OH-] [calcium hydroxide],–,4.3
